The record followed here is patent US12486253B2, “Therapeutics for the degradation of mutant BRAF” (C4 THERAPEUTICS, INC., priority 2021, dated 2025).

Molecules are shown by their SMILES. Where a name gives a salt, the structure may show the parent alone.

As usually defined, the DC50 is the concentration at which degradation of the target reaches its halfway point. As a reminder, the Emax is the size of the effect at its maximum, as opposed to the concentration needed.

This test concerns the target BRAF V600E (Homo sapiens, UniProt P15056, V600E). The test is described as follows: HiBiT cellular BRAF^V600E degradation assay. It is filed as cell-based. The following applies: A375.10 cells, 24 h; for DC50: concentration at which 50% of total cellular BRAF^V600E is degraded; for Emax: residual protein remaining in the cell, read-out: HiBit 24 h Emax. For orientation: With HiBiT, luminescence reflects the tagged protein that the partner subunit can reach.

Chain of BRAF V600E (P15056 whole entry V600E): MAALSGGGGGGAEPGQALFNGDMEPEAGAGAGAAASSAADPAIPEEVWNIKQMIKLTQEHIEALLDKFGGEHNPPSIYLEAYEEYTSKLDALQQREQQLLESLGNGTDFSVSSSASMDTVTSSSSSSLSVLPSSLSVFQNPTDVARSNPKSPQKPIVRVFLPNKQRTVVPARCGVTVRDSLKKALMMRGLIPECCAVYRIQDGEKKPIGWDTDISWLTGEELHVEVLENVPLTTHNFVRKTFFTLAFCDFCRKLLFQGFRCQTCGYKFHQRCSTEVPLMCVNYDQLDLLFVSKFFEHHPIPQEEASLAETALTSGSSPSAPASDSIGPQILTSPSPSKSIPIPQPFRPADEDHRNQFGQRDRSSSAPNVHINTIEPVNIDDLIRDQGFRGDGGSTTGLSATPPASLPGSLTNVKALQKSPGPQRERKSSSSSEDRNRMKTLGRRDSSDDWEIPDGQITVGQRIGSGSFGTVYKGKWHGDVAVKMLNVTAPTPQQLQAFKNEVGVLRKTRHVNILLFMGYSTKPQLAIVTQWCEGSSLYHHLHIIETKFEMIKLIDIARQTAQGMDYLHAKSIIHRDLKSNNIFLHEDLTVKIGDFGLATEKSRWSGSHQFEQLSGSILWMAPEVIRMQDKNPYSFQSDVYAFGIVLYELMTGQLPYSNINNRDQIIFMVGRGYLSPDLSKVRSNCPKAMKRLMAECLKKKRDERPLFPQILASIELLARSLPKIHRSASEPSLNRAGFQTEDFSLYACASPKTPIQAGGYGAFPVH

For `CCN(C)S(=O)(=O)Nc1ccc(F)c(Oc2ccc3ncn(-c4cnc(N5CCN(C(=O)CC6(O)CCN(c7cc8c(cc7F)c(N7CCC(=O)NC7=O)nn8C)CC6)CC5)nc4)c(=O)c3c2)c1C#N` [Example 199, 6-[2-cyano-3-[[ethyl(methyl)sulfamoyl]amino]-6-fluorophenoxy]-3-[2-[4-[2-[1-[3-(2,4-dioxo-1,3-diazinan-1-yl)-5-fluoro-1-methylindazol-6-yl]-4-hydroxypiperidin-4-yl]acetyl]piperazin-1-yl]pyrimidin-5-yl]-4-oxoquinazoline], the half-maximal degradation concentration (DC50) worked out at 0.0217 µM and the maximal effect (Emax) turned out to be 27.9%.

On to `CCN(C)S(=O)(=O)Nc1ccc(F)c(Oc2ccc3ncn([C@H]4COC5(CCC(N6CCC(c7cc8c(cc7F)c(N7CCC(=O)NC7=O)nn8C)CC6)CC5)C4)c(=O)c3c2)c1C#N` (stereo partly drawn) [Example 200, 6-[2-cyano-3-[[ethyl(methyl)sulfamoyl]amino]-6-fluorophenoxy]-3-[(3R)-8-[4-[3-(2,4-dioxo-1,3-diazinan-1-yl)-5-fluoro-1-methylindazol-6-yl]piperidin-1-yl]-1-oxaspiro[4.5]decan-3-yl]-4-oxoquinazoline], for which half-maximal degradation (DC50) was put at 0.0159 µM and the Emax was 26.9%.

For `CCN(C)S(=O)(=O)Nc1ccc(F)c(Oc2ccc3ncn([C@H]4COC5(CCN(C(=O)CC6(F)CCN(c7cc8c(cc7F)c(N7CCC(=O)NC7=O)nn8C)CC6)CC5)C4)c(=O)c3c2)c1C#N` [Example 201, (3R)-3-[6-[2-cyano-3-[[ethyl(methyl)sulfamoyl]amino]-6-fluorophenoxy]-4-oxoquinazolin-3-yl]-8-[2-[1-[3-(2,4-dioxo-1,3-diazinan-1-yl)-5-fluoro-1-methylindazol-6-yl]-4-fluoropiperidin-4-yl]acetyl]-1-oxa-8-azaspiro[4.5]decane], it took 0.0425 µM to reach half-maximal degradation (DC50) and the Emax was 27.2%.

`CCN(C)S(=O)(=O)Nc1ccc(F)c(Oc2ccc3ncc(-n4cc(N5CCCN(C(=O)CN6CCC(c7ccc(NC8CCC(=O)NC8=O)cc7F)CC6)CC5)cn4)nc3c2)c1C#N` (centres unmarked) [Example 215, 7-[2-cyano-3-[[ethyl(methyl)sulfamoyl]amino]-6-fluorophenoxy]-2-[4-[4-[2-[4-[4-[(2,6-dioxopiperidin-3-yl)amino]-2-fluorophenyl]piperidin-1-yl]acetyl]-1,4-diazepan-1-yl]pyrazol-1-yl]quinoxaline]: half-maximal degradation (DC50) was put at 0.0186 µM and the maximal effect (Emax) was found to be 7.82%.

Turning to `CCN(C)S(=O)(=O)Nc1ccc(F)c(Oc2ccc3ncc(OCC4CCN(C(=O)CN5CCC(c6ccc(NC7CCC(=O)NC7=O)cc6F)CC5)CC4)nc3c2)c1C#N` (centres unmarked) [Example 216, 7-[2-cyano-3-[[ethyl(methyl)sulfamoyl]amino]-6-fluorophenoxy]-2-[[1-[2-[4-[4-[(2,6-dioxopiperidin-3-yl)amino]-2-fluorophenyl]piperidin-1-yl]acetyl]piperidin-4-yl]methoxy]quinoxaline], the half-maximal degradation concentration (DC50) was determined as 0.0252 µM and the Emax is 10.1%.

For the molecule `CCN(C)S(=O)(=O)Nc1ccc(F)c(Oc2ccc3ncc(OC[C@@H]4[C@H]5CN(C(=O)CN6CCC(c7ccc(NC8CCC(=O)NC8=O)cc7F)CC6)C[C@@H]45)nc3c2)c1C#N` (stereo partly drawn) [Example 217, 7-[2-cyano-3-[[ethyl(methyl)sulfamoyl]amino]-6-fluorophenoxy]-2-[[(1R,5S)-3-[2-[4-[4-[(2,6-dioxopiperidin-3-yl)amino]-2-fluorophenyl]piperidin-1-yl]acetyl]-3-azabicyclo[3.1.0]hexan-6-yl]methoxy]quinoxaline], it took 0.018 µM to reach half-maximal degradation (DC50) and the maximal effect (Emax) was determined as 8.83%.

For the molecule `CCN(C)S(=O)(=O)Nc1ccc(F)c(Oc2ccc3ncc(C4COC5(CCN(C(=O)CN6CCC(c7ccc(NC8CCC(=O)NC8=O)cc7F)CC6)CC5)C4)cc3c2)c1C#N` (centres unmarked) [Example 218, 3-[6-[2-cyano-3-[[ethyl(methyl)sulfamoyl]amino]-6-fluorophenoxy]quinolin-3-yl]-8-[2-[4-[4-[(2,6-dioxopiperidin-3-yl)amino]-2-fluorophenyl]piperidin-1-yl]acetyl]-1-oxa-8-azaspiro[4.5]decane], it took 0.0114 µM to reach half-maximal degradation (DC50) and the maximal response (Emax) turned out to be 6.96%.

Consider `CCN(C)S(=O)(=O)Nc1ccc(F)c(Oc2ccc3ncc(N4CCC5(CCN(C(=O)CN6CCC(c7ccc(NC8CCC(=O)NC8=O)cc7F)CC6)CC5)C4)nc3c2)c1C#N` (centres unmarked) [Example 219, 7-[2-cyano-3-[[ethyl(methyl)sulfamoyl]amino]-6-fluorophenoxy]-2-[8-[2-[4-[4-[(2,6-dioxopiperidin-3-yl)amino]-2-fluorophenyl]piperidin-1-yl]acetyl]-2,8-diazaspiro[4.5]decan-2-yl]quinoxaline], for which half-maximal degradation (DC50) was put at 0.0217 µM and the Emax came to 13.9%.

As to `CCN(C)S(=O)(=O)Nc1ccc(F)c(Oc2ccc3ncc(C4CCC5(CCN(C(=O)CN6CCC(c7ccc(NC8CCC(=O)NC8=O)cc7F)CC6)CC5)C4)nc3c2)c1C#N` (centres unmarked) [Example 220, 7-[2-cyano-3-[[ethyl(methyl)sulfamoyl]amino]-6-fluorophenoxy]-2-[8-[2-[4-[4-[(2,6-dioxopiperidin-3-yl)amino]-2-fluorophenyl]piperidin-1-yl]acetyl]-8-azaspiro[4.5]decan-3-yl]quinoxaline], the DC50 amounted to 0.047 µM and the Emax was determined as 10.5%.

On to `CCN(C)S(=O)(=O)Nc1ccc(F)c(Oc2ccc3ncc(C4COC5(CCN(C(=O)CN6CCC(c7ccc(NC8CCC(=O)NC8=O)cc7F)CC6)CC5)C4)nc3c2)c1C#N` (centres unmarked) [Example 221, 3-[7-[2-cyano-3-[[ethyl(methyl)sulfamoyl]amino]-6-fluorophenoxy]quinoxalin-2-yl]-8-[2-[4-[4-[(2,6-dioxopiperidin-3-yl)amino]-2-fluorophenyl]piperidin-1-yl]acetyl]-1-oxa-8-azaspiro[4.5]decane], for which the 50% degradation concentration (DC50) was determined as 0.0305 µM and the Emax was found to be 10.3%.

As for `CCN(C)S(=O)(=O)Nc1ccc(F)c(Oc2ccc3ncc([C@@H]4COC5(CCN(C(=O)CN6CCC(c7ccc(NC8CCC(=O)NC8=O)cc7F)CC6)CC5)C4)nc3c2)c1C#N` (stereo partly drawn) [Example 223, (3R)-3-[7-[2-cyano-3-[[ethyl(methyl)sulfamoyl]amino]-6-fluorophenoxy]quinoxalin-2-yl]-8-[2-[4-[4-[(2,6-dioxopiperidin-3-yl)amino]-2-fluorophenyl]piperidin-1-yl]acetyl]-1-oxa-8-azaspiro[4.5]decane], the half-maximal degradation concentration (DC50) was found to be 0.0296 µM and the Emax was 10.5%.

On to `CCN(C)S(=O)(=O)Nc1ccc(F)c(Oc2ccc3ncc([C@H]4COC5(CCN(C(=O)CN6CCC(c7ccc(NC8CCC(=O)NC8=O)cc7F)CC6)CC5)C4)nc3c2)c1C#N` (stereo partly drawn) [Example 224, (3S)-3-[7-[2-cyano-3-[[ethyl(methyl)sulfamoyl]amino]-6-fluorophenoxy]quinoxalin-2-yl]-8-[2-[4-[4-[(2,6-dioxopiperidin-3-yl)amino]-2-fluorophenyl]piperidin-1-yl]acetyl]-1-oxa-8-azaspiro[4.5]decane], for which the DC50 was found to be 0.0229 µM and the Emax was 9.09%.

As for `CCN(C)S(=O)(=O)Nc1ccc(F)c(Oc2ccc3ncn([C@@H]4COC5(CCN(C(=O)CC6(O)CCN(c7cc8c(cc7F)c(N7CCC(=O)NC7=O)nn8C)CC6)CC5)C4)c(=O)c3c2)c1C#N` [Example 228, (3S)-3-[6-[2-cyano-3-[[ethyl(methyl)sulfamoyl]amino]-6-fluoro-phenoxy]-4-oxo-quinazolin-3-yl]-8-[2-[1-[3-(2,4-dioxohexahydropyrimidin-1-yl)-5-fluoro-1-methyl-indazol-6-yl]-4-hydroxy-4-piperidyl]acetyl]-1-oxa-8-azaspiro[4.5]decane], it took 0.0186 µM to reach half-maximal degradation (DC50) and the Emax stood at 7.82%.

In the case of `CCN(C)S(=O)(=O)Nc1ccc(F)c(Oc2ccc3ncn(CCC4CCN(C(=O)CN5CCC(c6ccc(NC7CCC(=O)NC7=O)cc6)CC5)CC4)c(=O)c3c2)c1C#N` (centres unmarked) [Example A1, 6-[2-cyano-3-[[ethyl(methyl)sulfamoyl]amino]-6-fluoro-phenoxy]-3-[2-[1-[2-[4-[4-[(2,6-dioxo-3-piperidyl)amino]phenyl]-1-piperidyl]acetyl]-4-piperidyl]ethyl]-4-oxo-quinazoline], the half-maximal degradation concentration (DC50) worked out at 0.078 µM and the Emax is 23%.

On to `CCN(C)S(=O)(=O)Nc1ccc(F)c(Oc2ccc3ncn(CCC4CCN(CC(=O)N5CCC(c6ccc(NC7CCC(=O)NC7=O)cc6)CC5)CC4)c(=O)c3c2)c1C#N` (centres unmarked) [Example A2, 6-[2-cyano-3-[[ethyl(methyl)sulfamoyl]amino]-6-fluoro-phenoxy]-3-[2-[1-[2-[4-[4-[(2,6-dioxo-3-piperidyl)amino]phenyl]-1-piperidyl]-2-oxo-ethyl]-4-piperidyl]ethyl]-4-oxo-quinazoline, 2,2,2-trifluoroacetic acid salt], for which the DC50 worked out at 0.165 µM and the Emax was 26%.

Regarding `N#Cc1c(NS(=O)(=O)C2CCCC2)ccc(F)c1Oc1ccc2ncn(CCC3CCN(C(=O)CN4CCC(c5ccc(NC6CCC(=O)NC6=O)cc5)CC4)CC3)c(=O)c2c1` (centres unmarked) [Example A3, N-[2-cyano-3-[3-[2-[1-[2-[4-[4-[(2,6-dioxo-3-piperidyl)amino]phenyl]-1-piperidyl]acetyl]-4-piperidyl]ethyl]-4-oxo-quinazolin-6-yl]oxy-4-fluoro-phenyl]cyclopentanesulfonamide 2,2,2-trifluoroacetic acid salt], the 50% degradation concentration (DC50) is 0.242 µM and the Emax came out at 24%.
